Assay results taken from patent publication US20040039023A1, “Therapeutic agents” (priority 2000, published 2004).

What was measured:
α1-adrenoceptors = assay: Inhibition of [7-methoxy-3H]prazosin binding to α1-adrenoceptors, rat whole cortical tissue; conditions: ligand [7-methoxy-3H]prazosin 0.1 nM
Method: Whole cortical tissue from the brains of male Charles River CD rats weighing between 150-250 g were homogenised in ice-cold 50 mM Tris-HCl, pH 7.6 (at 25° C.; 1:40 w/v) and centrifuged at 1000 g at 4° C. for 10 minutes. The supernatant was centrifuged at 30,000 g at 4° C. for 10 minutes. The pellet was rehomogenised in 50 mM Tris-HCl, pH 7.6 (1:40 w/v) and centrifuged at 30,000 g at 4° C. for 10 minutes. The final pellet was resuspended in 50 mM Tris-HCl, pH 7.6 (equivalent to 12.5 mg wet weight of tissue/ml) and used immediately in the binding assay. Aliquots (400 μl; equivalent to 5 mg wet weight of tissue/tube) of this suspension were added to tubes containing the ligand (50 μl; 0.1 nM) and distilled water (50 μl; total binding) or phentolamine (50 μl; 5 μM; non-specific binding) or test compound (50 μl; at a single concentration of 10^−6M or at 10 concentrations ranging from 10^−11-10^−3M). The ligand was [7-methoxy-^3H]prazosin and the mixture was incubated at 30° C. for 30 minutes before the incubation was terminated by rapid filtration.
(§1) The filters were washed with ice-cold Tris-HCl buffer and dried. The filters were punched out into vials, scintillation fluid added and radioactivity determined by liquid scintillation counting. The percentage displacement of specific binding of the tritiated ligand was calculated for the single concentration (10^−6 M) of test compound. Displacement curves were then produced for those compounds which displaced ≧50% of specific binding of the tritiated ligand at 10^−6 M using a range of concentrations of the compound. The concentration which gave 50% inhibition of specific binding (IC50) was obtained from the curve. The inhibition coefficient Ki was then calculated using the formula [formula]
(§2) in which [ligand] is the concentration of the tritiated ligand used and KD is the equilibrium dissociation constant for the ligand.

[1] = tested on: apomorphine-induced climbing in mice; assay: Antagonism of apomorphine-induced climbing in mice; type: in vivo; conditions: male mice; for ED50: Mus musculus, po 30 minutes before apomorphine 0.88 mg/kg sc, free base equivalents, read-out: ED50 (dose causing 50% of the control score); for duration: po, antagonism of apomorphine-induced climbing
Method: Antagonism of Apomorphine-Induced Climbing in Mice Groups of 10 male mice weighing […] (max. range 10 g) were treated with test compound or control vehicle by po administration. 30 minutes later, mice were injected subcutaneously with apomorphine (0.88 mg/kg). Immediately after the apomorphine injection the mice were placed in the test cages and the climbing behaviour of each mouse was assessed at 10 and 20 minutes on a simple 0-2 ranking scale. The ED50 values (dose causing 50% of the control score) for the test compounds and 95% confidence limits were calculated.

5-HT1A receptors = biological target: T1, 5-HT1A receptors (Rattus norvegicus, UniProt P19327); assay: Inhibition of [3H]8-OH-DPAT binding to 5-HT1A receptors, rat hippocampal tissue; conditions: ligand [3H]8-OH-DPAT 2 nM
T1 construct: Hippocampal tissue from the brains of male Charles River CD rats; from tissue; host or cells: rat hippocampus membrane homogenate
T1 sequence (P19327 1-422): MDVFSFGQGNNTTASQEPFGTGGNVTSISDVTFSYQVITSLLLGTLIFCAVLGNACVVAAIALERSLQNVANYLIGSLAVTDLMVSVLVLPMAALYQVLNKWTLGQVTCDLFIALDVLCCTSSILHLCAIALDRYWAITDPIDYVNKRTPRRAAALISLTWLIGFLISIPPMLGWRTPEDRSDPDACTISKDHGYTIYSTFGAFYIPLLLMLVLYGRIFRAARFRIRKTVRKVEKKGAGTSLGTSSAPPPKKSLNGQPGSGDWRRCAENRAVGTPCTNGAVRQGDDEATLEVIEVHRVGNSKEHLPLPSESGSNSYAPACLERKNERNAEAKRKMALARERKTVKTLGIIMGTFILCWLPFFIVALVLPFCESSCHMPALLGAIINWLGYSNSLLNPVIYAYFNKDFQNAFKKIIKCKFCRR
Method: Hippocampal tissue from the brains of male Charles River CD rats weighing between 150-250 g were homogenised in ice-cold 50 mM Tris-HCl buffer (pH 7.7) when measured at 25° C., 1:40 w/v) and centrifuged at 30,000 g at 4° C. for 10 minutes. The pellet was rehomogenised in the same buffer, incubated at 37° C. for 10 minutes and centrifuged at 30,000 g at 4° C. for 10 minutes. The final pellet was resuspended in 50 mM Tris-HCl buffer (pH 7.7) containing 4 mM CaCl2, 0.1% L-ascorbic acid and 10 μM pargyline hydrochloride (equivalent to 6.25 mg wet weight of tissue/ml) and used immediately in the binding assay. Aliquots (400 μl; equivalent to 2.5 mg wet weight of tissue/tube) of this suspension were added to tubes containing the ligand (50 μl; 2 nM) and distilled water (50 μl; total binding) or 5-HT (50 μl; 10 μM; non-specific binding) or test compound (50 μl; at a single concentration of 10^−6 M or at 10 concentrations ranging from 10^−11-10^−3 M). The ligand was [^3H]8-hydroxy-2-(dipropylamino)tetralin ([^3H]8-OH-DPAT) and the mixture was incubated at 25° C. for 30 minutes before the incubation was terminated by rapid filtration.
as §1, §2

D2 dopamine receptors = biological target: T2, D2 dopamine receptors (Rattus norvegicus, UniProt P61169); assay: Inhibition of tritiated (S)-sulpiride binding to D2 dopamine receptors, rat striatal tissue; conditions: ligand tritiated (S)-sulpiride 1 nM
T2 construct: Striatal tissue from the brains of male Charles River CD rats; from tissue; host or cells: rat striatum membrane homogenate
T2 sequence (P61169 whole entry): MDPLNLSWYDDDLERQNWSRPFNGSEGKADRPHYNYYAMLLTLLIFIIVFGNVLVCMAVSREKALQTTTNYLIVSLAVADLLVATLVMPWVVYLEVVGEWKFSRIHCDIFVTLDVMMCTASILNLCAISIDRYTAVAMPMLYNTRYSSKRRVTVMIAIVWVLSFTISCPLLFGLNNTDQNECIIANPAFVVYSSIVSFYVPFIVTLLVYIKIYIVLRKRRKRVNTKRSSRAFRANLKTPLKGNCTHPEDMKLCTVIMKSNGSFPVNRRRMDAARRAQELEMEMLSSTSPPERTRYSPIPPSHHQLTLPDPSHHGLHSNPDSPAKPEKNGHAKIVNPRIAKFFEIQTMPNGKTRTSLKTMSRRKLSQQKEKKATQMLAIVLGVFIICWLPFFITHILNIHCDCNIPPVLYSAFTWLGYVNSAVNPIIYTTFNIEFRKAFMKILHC
Method: Striatal tissue from the brains of male Charles River CD rats weighing between 140-250 g were homogenised in ice-cold 50 mM Tris-HCl buffer (pH 7.7 when measured at 25° C.) and centrifuged at 40,000 g for 10 minutes. The pellet was resuspended in Tris salts buffer (50 mM Tris-HCl buffer containing 120 mM NaCl, 5 mM KCl, 2 mM CaCl2 and 1 mM MgCl2 with the addition of 6 mM ascorbic acid; pH 7.7 when measured at 25° C.), and again centrifuged at 40,000 g for 10 minutes. The final pellet was stored at −80° C. Before each test the pellet was resuspended in Tris salts buffer (equivalent to 2 mg wet weight of tissue/ml). […]
The filters were washed with ice-cold Tris-HCl buffer and dried. The filters were punched out in to vials, scintillation fluid added and were left for about 20 hours before being counted by scintillation spectrophotometry. The percentage displacement of specific binding of the tritiated ligand was calculated for the single concentration (10^−6 M) of test compound. […] The inhibition coefficient Ki was then calculated using the formula [formula] […]

Ki (α1-adrenoceptors)	Ki (5-HT1A receptors)	Ki (D2 dopamine receptors)	melting point	Compound	ED50 [1]	duration [1]
573 nM	37 nM	25 nM	–	Oc1ccccc1N1CCC(CNC[C@H]2COc3ccc(C(F)(F)F)cc3O2)CC1 [Example 2, (S)-(−)-2-{4-[N-(7-trifluoromethyl-2,3-dihydro-1,4-benzodioxin-2-ylmethyl)aminomethyl]piperidino}phenol]	0.6 mg/kg	[>4 h]
101 nM	12 nM	11 nM	84 to 86 °C	Oc1ccccc1N1CCC(CNC[C@H]2COc3ccc(Cl)cc3O2)CC1 [Example 1, (S)-(−)-2-{4-[N-(7-chloro-2,3-dihydro-1,4-benzodioxin-2-ylmethyl)aminomethyl]piperidino}phenol]	3 mg/kg	[>6 h]
53 nM	22 nM	–	–	COc1ccccc1N1CCC(CNC[C@H]2COc3ccc(Cl)cc3O2)CC1 [Comparative Example A, (S)-(−)-N-(7-Chloro-1,4-benzodioxan-2-ylmethyl)-1-(1-(2-methoxyphenyl)piperid-4-yl)methylamine, reference compound]	5 mg/kg	[>6 h]
